Laboratory results taken from PubChem BioAssay AID296 (DTP/NCI, 2004).
Values joined by “and” are separate entries in the source; they are usually repeats but may differ in a detail not shown here. Equal values may be shown once. Results filed as inconclusive are left out.

System: MX-1 breast xenograft, nude mice, tumor weight T/C
Assay: NCI In Vivo Anticancer Drug Screen. Data for tumor model Human Mammary Carcinoma MX-1 Xenograft (intrarenal inoculation) in NU/NU Swiss (nude) mice
Conditions: endpoint: mean tumor weight change, higher = larger tumour
How it was run: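 Read-out: treated (T) over vehicle control (C) ratio of survival or tumor size. Dosing in animals carrying the transplanted tumor.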

[1] = dose: 200.0 mg/kg/injection, schedule: Q04DX003 (sc), vehicle: saline
[2] = dose: 200.0 mg/kg/injection, schedule: Q04DX003 (sc), vehicle: suspension in saline
[3] = dose: 400.0 mg/kg/injection, schedule: Q04DX003 (sc), vehicle: suspension in saline
[4] = dose: 150.0 mg/kg/injection, schedule: Q04DX003 (sc), vehicle: saline
[5] = dose: 600.0 mg/kg/injection, schedule: Q04DX003 (sc), vehicle: saline with Tween-80
[6] = dose: 600.0 mg/kg/injection, schedule: Q04DX003 (sc), vehicle: suspension in saline
[7] = dose: 75.0 mg/kg/injection, schedule: Q04DX003 (sc), vehicle: saline with Tween-80
[8] = dose: 150.0 mg/kg/injection, schedule: Q04DX003 (sc), vehicle: saline with Tween-80
[9] = dose: 150.0 mg/kg/injection, schedule: Q04DX003 (sc), vehicle: Klucel (hydroxypropylcellulose) (HPC)
[10] = dose: 300.0 mg/kg/injection, schedule: Q04DX003 (sc), vehicle: Klucel (hydroxypropylcellulose) (HPC)

SMILES: CN(C)N=Nc1cn[nH]c1C(N)=O
- T/C (dose: 100.0 mg/kg/injection, schedule: Q04DX003 (sc), vehicle: suspension in saline): 98 % of control
- T/C [1]: 63 % of control
- T/C [2]: 67 % of control
- T/C (dose: 400.0 mg/kg/injection, schedule: Q04DX003 (sc), vehicle: saline): 49 % of control
- T/C [3]: 31 % of control and 37 % of control
- T/C (dose: 800.0 mg/kg/injection, schedule: Q04DX003 (sc), vehicle: saline): 13 % of control
- T/C (dose: 800.0 mg/kg/injection, schedule: Q04DX003 (sc), vehicle: suspension in saline): 2 % of control and 7 % of control

SMILES: COc1cc2cc3c4cc(OC)c(OC)cc4cc[n+]3c(C)c2cc1OC (tested in a mixture with another compound)
- T/C (dose: 75.0 mg/kg/injection, schedule: Q04DX003 (sc), vehicle: saline): 79 % of control
- T/C [4]: 60 % of control

SMILES: COc1cccc2c1C(=O)c1c(O)c3c(c(O)c1C2=O)C[C@@](O)(/C(C)=N/NC(=O)c1ccccc1)C[C@@H]3OC1CC(N)C(O)C(C)O1 (some centres not stated)
- T/C (dose: 18.75 mg/kg/injection, schedule: Q04DX003 (sc), vehicle: water): 73 % of control
- T/C (dose: 37.5 mg/kg/injection, schedule: Q04DX003 (sc), vehicle: water): 25 % of control

SMILES: CN(Cc1cnc2nc(N)nc(N)c2n1)c1c(Cl)cc(C(=O)NC(CCC(=O)O)C(=O)O)cc1Cl (configuration not stated)
- T/C (dose: 12.5 mg/kg/injection, schedule: Q01DX010 (sc), vehicle: Klucel (hydroxypropylcellulose) (HPC)): 86 % of control
- T/C (dose: 25.0 mg/kg/injection, schedule: Q01DX010 (sc), vehicle: Klucel (hydroxypropylcellulose) (HPC)): 44 % of control
- T/C (dose: 50.0 mg/kg/injection, schedule: Q01DX010 (sc), vehicle: Klucel (hydroxypropylcellulose) (HPC)): -25 % of control

SMILES: CCCCCC#CC1OC12CCCCC2 (configuration not stated)
- T/C (dose: 300.0 mg/kg/injection, schedule: Q04DX003 (sc), vehicle: saline with Tween-80): 83 % of control
- T/C [5]: 101 % of control
- T/C (dose: 1200.0 mg/kg/injection, schedule: Q04DX003 (sc), vehicle: saline with Tween-80): 83 % of control
- T/C (dose: 2400.0 mg/kg/injection, schedule: Q04DX003 (sc), vehicle: saline with Tween-80): 78 % of control

SMILES: CS(=O)(=O)OCCC(=O)N1CCN(C(=O)CCOS(C)(=O)=O)CC1
- T/C (dose: 300.0 mg/kg/injection, schedule: Q04DX003 (sc), vehicle: suspension in saline): 8 % of control
- T/C [6]: -100 % of control
- T/C (dose: 1200.0 mg/kg/injection, schedule: Q04DX003 (sc), vehicle: suspension in saline): -100 % of control

SMILES: NC(=S)c1cn(C2OC(CO)C(O)C2O)c2ncnc(N)c12 (configuration not stated)
- T/C (dose: 6.25 mg/kg/injection, schedule: Q04DX003 (sc), vehicle: suspension in saline): 50 % of control
- T/C (dose: 12.5 mg/kg/injection, schedule: Q04DX003 (sc), vehicle: suspension in saline): 9 % of control

SMILES: CCCC(=O)Nc1ncnc2c1ncn2C1OC2COP(=O)(O)OC2C1OC(=O)CCC (configuration not stated)
- T/C (dose: 200.0 mg/kg/injection, schedule: Q01DX010 (sc), vehicle: saline): 159 % of control
- T/C (dose: 400.0 mg/kg/injection, schedule: Q01DX010 (sc), vehicle: saline): 124 % of control

SMILES: CCC1=C[C@H]2CN(CCc3c([nH]c4ccccc34)[C@@](C(=O)OC)(c3cc4c(cc3OC)N(C)[C@H]3[C@@](O)(C(=O)NC)[C@H](OC(C)=O)[C@]5(CC)C=CCN6CC[C@]43[C@@H]65)C2)C1
- T/C (dose: 1.0 mg/kg/injection, schedule: Q04DX003 (sc), vehicle: water): 48 % of control
- T/C (dose: 2.0 mg/kg/injection, schedule: Q04DX003 (sc), vehicle: water): 45 % of control

SMILES: COC1/C=C/O[C@@]2(C)Oc3c(C)c(O)c4c(O)c(cc(O)c4c3C2=O)NC(=O)/C(C)=C\C=C\[C@H](C)C(O)[C@@H](C)[C@@H](O)[C@@H](C)[C@H](OC(C)=O)[C@@H]1C (some centres not stated)
- T/C [6]: 153 % of control
- T/C (dose: 2400.0 mg/kg/injection, schedule: Q04DX003 (sc), vehicle: suspension in saline): 150 % of control

SMILES: CO[C@H]1Nc2c(ccc(C)c2O)C(=O)N2C=C(/C=C/C(N)=O)C[C@@H]12
- T/C (dose: 0.5 mg/kg/injection, schedule: Q04DX003 (sc), vehicle: saline + alcohol): 18 % of control and 40 % of control
- T/C (dose: 2.0 mg/kg/injection, schedule: Q04DX003 (sc), vehicle: saline + alcohol): -100 % of control

SMILES: C=C(C)[C@@H]1CCc2c(O)c(O)c(=O)cc(C)c2C1
- T/C [4]: 91 % of control
- T/C (dose: 300.0 mg/kg/injection, schedule: Q04DX003 (sc), vehicle: saline): 107 % of control
- T/C (dose: 600.0 mg/kg/injection, schedule: Q04DX003 (sc), vehicle: saline): 89 % of control
- T/C (dose: 1200.0 mg/kg/injection, schedule: Q04DX003 (sc), vehicle: saline): 98 % of control

SMILES: COc1ccc(C[C@H](N)C(=O)NC2C(CO)OC(n3cnc4c(N(C)C)ncnc43)C2O)cc1 (some centres not stated)
- T/C (dose: 100.0 mg/kg/injection, schedule: Q04DX003 (sc), vehicle: saline): 102 % of control
- T/C [1]: 99 % of control

SMILES: O=c1n(CC2CO2)c(=O)n(CC2CO2)c(=O)n1CC1CO1 (configuration not stated)
- T/C (dose: 25.0 mg/kg/injection, schedule: Q04DX003 (sc), vehicle: saline): 26 % of control
- T/C (dose: 50.0 mg/kg/injection, schedule: Q04DX003 (sc), vehicle: saline): 4 % of control

SMILES: O=c1[nH]c2c(ccc3cnccc32)c2c1CCC2
- T/C (dose: 50.0 mg/kg/injection, schedule: Q04DX003 (sc), vehicle: suspension in saline): 71 % of control
- T/C [2]: 70 % of control
- T/C [3]: 100 % of control

SMILES: CN(C)N=Nc1ccc(S(N)(=O)=O)cc1
- T/C (dose: 100.0 mg/kg/injection, schedule: Q01DX010 (sc), vehicle: Klucel (hydroxypropylcellulose) (HPC)): 75 % of control
- T/C (dose: 200.0 mg/kg/injection, schedule: Q01DX010 (sc), vehicle: Klucel (hydroxypropylcellulose) (HPC)): 47 % of control
- T/C (dose: 400.0 mg/kg/injection, schedule: Q01DX010 (sc), vehicle: Klucel (hydroxypropylcellulose) (HPC)): 42 % of control

SMILES: CC1c2ccccc2CC(CCN(C)C)c2ccccc21 (configuration not stated)
- T/C (dose: 9.37 mg/kg/injection, schedule: Q04DX003 (sc), vehicle: saline with Tween-80): 101 % of control
- T/C (dose: 12.5 mg/kg/injection, schedule: Q04DX003 (sc), vehicle: saline with Tween-80): 63 % of control
- T/C (dose: 18.75 mg/kg/injection, schedule: Q04DX003 (sc), vehicle: saline with Tween-80): 83 % of control
- T/C (dose: 25.0 mg/kg/injection, schedule: Q04DX003 (sc), vehicle: saline with Tween-80): 54 % of control
- T/C (dose: 37.5 mg/kg/injection, schedule: Q04DX003 (sc), vehicle: saline with Tween-80): 52 % of control
- T/C (dose: 50.0 mg/kg/injection, schedule: Q04DX003 (sc), vehicle: saline with Tween-80): 65 % of control
- T/C [7]: 26 % of control
- T/C (dose: 100.0 mg/kg/injection, schedule: Q04DX003 (sc), vehicle: saline with Tween-80): 38 % of control
- T/C [8]: -3 % of control
- T/C [5]: -19 % of control

SMILES: C1CCC2C[N-]CCC2C1.C1CCC2C[N-]CCC2C1.C1CCC2C[N-]CCC2C1.C1CCC2C[N-]CCC2C1.[Cl][Rh][Cl] (configuration not stated)
- T/C (dose: 18.0 mg/kg/injection, schedule: Q04DX003 (sc), vehicle: saline with Tween-80): 107 % of control
- T/C (dose: 36.0 mg/kg/injection, schedule: Q04DX003 (sc), vehicle: saline with Tween-80): 103 % of control
- T/C (dose: 72.0 mg/kg/injection, schedule: Q04DX003 (sc), vehicle: saline with Tween-80): 86 % of control
- T/C (dose: 144.0 mg/kg/injection, schedule: Q04DX003 (sc), vehicle: saline with Tween-80): 78 % of control

SMILES: CC(CN1CC(=O)NC(=O)C1)N1CC(=O)NC(=O)C1 (configuration not stated)
- T/C [9]: 92 % of control
- T/C [10]: 64 % of control

SMILES: CCNC(C)(C)C(SSS)c1ccco1 (configuration not stated)
- T/C [9]: 102 % of control
- T/C [10]: 97 % of control
- T/C (dose: 600.0 mg/kg/injection, schedule: Q04DX003 (sc), vehicle: Klucel (hydroxypropylcellulose) (HPC)): 80 % of control
- T/C (dose: 1200.0 mg/kg/injection, schedule: Q04DX003 (sc), vehicle: Klucel (hydroxypropylcellulose) (HPC)): 86 % of control

SMILES: CC1=CC(C)(C)Nc2ccc(CSc3ccccc3)cc21
- T/C (dose: 25.0 mg/kg/injection, schedule: Q01DX010 (sc), vehicle: saline + Tween-80 + alcohol): 85 % of control
- T/C (dose: 50.0 mg/kg/injection, schedule: Q01DX010 (sc), vehicle: saline + Tween-80 + alcohol): 153 % of control
- T/C (dose: 100.0 mg/kg/injection, schedule: Q01DX010 (sc), vehicle: saline + Tween-80 + alcohol): 79 % of control and 102 % of control
- T/C (dose: 200.0 mg/kg/injection, schedule: Q01DX010 (sc), vehicle: saline + Tween-80 + alcohol): 89 % of control

SMILES: C[Si](C)(C)n1nnn(-c2ccccc2)c1=O
- T/C [7]: 90 % of control
- T/C [8]: 71 % of control
- T/C [5]: 91 % of control
